{"source": "patent US6258845A", "about": "(priority 1999, dated 2001)", "key": {"[1]": {"test_system": "carcinogenesis in rodent/animal models", "conditions": "in vivo; cited from earlier work"}, "[2]": {"test_system": "Ki-ras clone #60 cells", "assay": "Clonogenic assay (colony-forming efficiency), Ki-ras clone 60", "format": "cell-based, human", "conditions": "Homo sapiens, Caco-2, 24 h; read-out: decrease in cell survival compared to untreated transfectants"}, "[3]": {"test_system": "tissue polyamine contents (Barrett's lesion, normal squamous esophagus, gastric tissue, small bowel)", "assay": "DFMO in Barrett's esophagus patients, tissue polyamine contents", "format": "in vivo, human", "conditions": "1.5 gm/m^2 per day, 12 weeks", "excerpt": "ODC activities and polyamine contents varied in each site analyzed. The rank orders were Barrett's>small bowel~normal esophagus>gastric tissue for ODC activities, and small bowel≥Barrett's~normal esophagus>gastric tissue for putrescine contents."}, "[4]": {"test_system": "Ki-ras clones 60 and 66", "assay": "cells", "conditions": "Homo sapiens"}, "[5]": {"test_system": "ODC and polyamine contents", "assay": "DFMO effect on colorectal and buccal mucosa ODC and polyamine contents", "format": "in vivo, human", "excerpt": "When the inventors started these studies, their hope was that the effects of polyamine syntheses inhibitors in easily accessible tissues, such as buccal mucosa in the oral cavity, would be representative of inhibitor effects in less accessible tissue of the gastrointestinal tract. To test this hypothesis, the inventors measured ODC activity and polyamine contents in buccal mucosa isolated from normal human volunteers. […] From these studies, the inventors concluded that the buccal mucosal was not a useful surrogate tissue in which to measure the effects of polyamine synthesis inhibitor on other GI tissues."}, "[6]": {"test_system": "ornithine decarboxylase (ODC)", "conditions": "cited from earlier work"}, "[7]": {"test_system": "platelet counts", "conditions": "continuous infusion for 12 days; cited from earlier work"}, "[8]": {"test_system": "Caco-2 parental cells", "conditions": "long-term survival, Caco-2 cells"}, "[9]": {"test_system": "Caco-2 parental cells", "assay": "Induction of apoptosis (light microscopy) in Caco-2 parental cells", "format": "cell-based, human", "conditions": "5 mM DFMO, with or without sulindac sulfone (so in the source); parental Caco-2", "method": "(§1) FIG. 3. […] Apoptosis was determined by light microscopy.\n(§2) FIG. 8. […] Cells were grown over a period of 6 days. Cells were harvested at various days (0, 2, 4 and 6 days), spun onto slides and stained. Apoptosis was determined by light microscopy. Percentage of apoptotic cells was calculated as the number of apoptotic cells out of the total cells counted times 100. At least 500 cells were counted for each sample.\n(§3) Cells were grown over a period of 6 days. Cells were harvested at various days (0, 2, 4 and 6 days), spun onto slides and stained. Apoptosis was determined by light microscopy. Percentage of apoptotic cells was calculated as the number of apoptotic cells out of the total cells counted times 100."}, "[10]": {"test_system": "polyamine levels", "format": "in vivo, human", "excerpt": "Based on this information a dose of 0.2 Gm/M^2 /day will be used for the current trial."}, "[11]": {"test_system": "tumors harboring Ki-ras mutations in AOM-treated rats", "conditions": "cited from earlier work"}, "[12]": {"test_system": "Caco-2 parental cells, Ki-ras clone #60 and Ki-ras clone #66", "assay": "Viable cell number (trypan blue dye exclusion), growth of Caco-2 parental and Ki-ras transfected cells", "format": "cell-based, human", "conditions": "5 mM DFMO continuously, short-term growth", "description": "Effect of sulindac sulfide and sulfone on the growth of Ki-ras transfected cells. […] Viable cell number was determined by trypan blue dye exclusion.\nCaco-2 cells were maintained in Modified Eagle Media (GIBCO, Grand Island, N.Y.) supplemented with 10% fetal bovine serum and a 1% penicillin (10,000 units/ml)-streptomycin (10,000 mg/ml) solution (GIBCO, Grand Island, N.Y.). Transfected Caco-2 cells resistant to neomycin were maintained in 400 μg/ml G418. Cells were maintained at 37° in the presence of 5% CO2 in air.\nAll cells were passed into new medium every two to three days, just prior to confluence. Drug additions were performed at the time of cell seeding and in MEM for each cell line unless otherwise noted. […] The two metabolites of sulindac, sulindac sulfone and sulfide, were obtained from Cell Pathways, Inc. (Horsham Pa.).\nCaco-2 cells were removed from the monolayer by treatment with trypsin (1500 units/ml, Calbiochem, San Diego, Calif.)-EDTA (.7mM) and counted using a hemocytometer. A sample of the cell suspension was combined in a 1:1 volume ratio with trypan blue dye (GIBCO, Grand Island, N.Y.), and at least two independently prepared suspensions were counted on a hemocytometer, two counts each. For all cell types, viability was determined by the percentage of cells able to exclude the trypan blue dye."}, "[13]": {"test_system": "MCA sarcoma", "conditions": "in vivo; cited from earlier work"}, "[14]": {"test_system": "intracellular putrescine and spermidine", "conditions": "cited from earlier work"}, "[15]": {"test_system": "tumor putrescine levels", "conditions": "DFMO infusion, cited from earlier work"}, "[16]": {"test_system": "Ki-ras clone #60", "assay": "Induction of apoptosis (light microscopy) in Ki-ras clone 60", "format": "cell-based, human", "conditions": "day 6, 5 mM DFMO, with or without sulindac sulfone (so in the source)", "method": "as §1, §2, §3"}, "[17]": {"test_system": "human cancer", "conditions": "cited from earlier work"}, "[18]": {"test_system": "colorectal tissue polyamine contents", "method": "All biopsies were performed between 9:00 a.m. and noon to avoid possible effects of diurnal variation in laboratory endpoints."}, "[19]": {"test_system": "hearing", "assay": "DFMO effects on hearing / ototoxicity in patients", "conditions": "0.25 g/m^2 /d"}, "[20]": {"test_system": "Caco-2 parental cells", "assay": "cells", "conditions": "Homo sapiens, Caco-2, 24 h, read-out: cell survival"}, "[21]": {"test_system": "hearing", "conditions": "cited from earlier work"}, "[22]": {"conditions": "human, in vivo"}, "[23]": {"conditions": "listed as α-Difluoromethylornithine (DFMO)"}}, "note": "Entries after “also recorded” stand apart in the source; their conditions may differ. Where two headings read alike, the source gives them in different places.", "data": [{"smiles": "NCCCC(N)(C(=O)O)C(F)F", "note": "(racemic) [DFMO, 2(Difluoromethyl)-DL-ornithine]", "values": [{"measurement": "chemoprevention / inhibition of tumor development in animal models", "setting": "[1]", "value": "potent inhibitor of carcinogenesis; also recorded: inhibits the development of many cancers including carcinogen-induced colon polyps and cancer; also recorded: inhibits colon carcinogenesis in carcinogen-treated rodents"}, {"measurement": "cytotoxicity at 5000 µM", "setting": "[2]", "value": 60, "unit": "%"}, {"measurement": "spermidine contents", "setting": "[3]; Barrett's lesions and normal squamous esophageal tissue", "value": "suppressed by systemic DFMO treatment and recovered to untreated control values when DFMO therapy was discontinued"}, {"measurement": "spermidine and spermine levels", "setting": "[3]; gastric tissue and small bowel", "value": "did not affect the levels of either of these two amines in gastric tissue and small bowel"}, {"measurement": "IC50", "setting": "[4]; 24 h, read-out: concentration at 50% cell survival", "value": 500, "unit": "µM"}, {"measurement": "minimal effective concentration", "setting": "[4]; 24 h, read-out: lowest concentration (selectively) toxic to cells with an activated Ki-ras", "value": 50, "unit": "µM"}, {"measurement": "viability at 5000 µM", "setting": "[4]; Caco-2, 24 h, read-out: cell survival, of controls", "value": "20 to 40", "unit": "%"}, {"measurement": "inhibition at 5000 µM", "setting": "[4]; Caco-2, 24 h, read-out: reduction of colony-forming efficiency of the Ki-ras transfectants", "value": 40, "unit": "%"}, {"measurement": "buccal mucosal ODC and polyamine contents", "setting": "[5]; buccal mucosa", "value": "unaffected"}, {"measurement": "polyamine contents in colorectal tissue biopsies", "setting": "[5]; colorectal tissue", "value": "reduced polyamine contents in colorectal tissue biopsies"}, {"measurement": "inhibition of ODC", "setting": "[6]", "value": "powerful inhibitor of ODC, both in vitro and in vivo"}, {"measurement": "inhibition of ODC", "setting": "[6]; [23]", "value": "enzyme-activated, irreversible inhibitor of ornithine decarboxylase (ODC)"}, {"measurement": "platelet counts", "setting": "[7]", "value": "significantly reduces platelet counts compared with controls"}, {"measurement": "effect of DFMO on toxicity of the sulindac metabolites", "setting": "[8]", "value": "did not increase the toxicity of the sulindac metabolites in long-term survival studies"}, {"measurement": "increase in apoptosis", "setting": "[9]", "value": "only a modest increase in apoptosis"}, {"measurement": "lowest dose that may produce a persistent effect on polyamine levels", "setting": "[10]; 12 months", "value": 0.10, "unit": "Gm/M^2 /day"}, {"measurement": "audiotoxicity", "setting": "[10]; in vivo", "value": "no audiotoxicity was evident"}, {"measurement": "patients coming off study", "setting": "[10]; in vivo", "value": "came off study more frequently"}, {"measurement": "side-effects after one year", "setting": "[10]; in vivo", "value": "equivalent to placebo"}, {"measurement": "amount of biochemically active p21 ras in existing tumors", "setting": "[11]", "value": "reduced the amount of biochemically active p21 ras in existing tumors"}, {"measurement": "tumors harboring Ki-ras mutations", "setting": "[11]; reduced from 90%", "value": 36, "unit": "%"}, {"measurement": "trypan blue dye exclusion", "setting": "[12]", "value": "exclusion of trypan blue dye in either the Ki-ras cells or parentals was unaffected"}, {"measurement": "growth of MCA sarcoma", "setting": "[13]", "value": "reduces the growth rate of an MCA sarcoma but does not produce tumor regression"}, {"measurement": "uptake of exogenous putrescine", "setting": "[14]; cells treated in vivo", "value": "significantly increase their uptake of exogenous putrescine"}, {"measurement": "intracellular polyamine concentrations", "setting": "[14]", "value": "decrease in putrescine and spermidine concentrations"}, {"measurement": "intracellular polyamine concentrations", "setting": "[14]; [23]", "value": "depletion in the intracellular concentrations of putrescine and its derivative, spermidine"}, {"measurement": "decrease in tumor putrescine levels", "setting": "[15]; rat-tumor model", "value": 90, "unit": "%"}, {"measurement": "peripheral platelet counts", "setting": "[15]", "value": "without suppressing peripheral platelet counts"}, {"measurement": "percentage of apoptotic cells", "setting": "[16]", "value": 15, "unit": "%"}, {"measurement": "activity in chemotherapy trials", "setting": "[17]; human cancer", "value": "not to be an active cytotoxic agent"}, {"measurement": "activity in malignant brain tumors", "setting": "[17]; malignant brain tumors", "value": "moderate activity"}, {"measurement": "lowest dose safe and effective in reducing colorectal mucosal polyamine contents", "setting": "[18]; daily orally, 28 days", "value": 0.25, "unit": "gm/m^2"}, {"measurement": "lowest dose with evident effects on polyamine metabolism", "setting": "[18]; phase IIa, one month", "value": 0.2, "unit": "Gm/M^2 /day"}, {"measurement": "lowest dose decreasing putrescine content", "setting": "[18]; single daily oral doses, 4 wk, colorectal biopsies", "value": 0.25, "unit": "gm/m^2"}, {"measurement": "expected onset of hearing loss", "setting": "[19]", "value": "> 800", "unit": "days"}, {"measurement": "viability at 5000 µM", "setting": "[20]", "value": "~100", "unit": "%"}, {"measurement": "effects on hearing", "setting": "[21]; 0.4gr/M^2 /day for up to one year", "value": "not observed"}, {"measurement": "audiometric changes", "setting": "[21]; about 6 months at 0.50 g/m^2 /d (total dose 90 gm)", "value": "no audiometric changes"}, {"measurement": "patients with hearing losses", "setting": "[21]; cumulative doses above 250 g/m^2", "value": "up to 75 % of patients"}, {"measurement": "patients with demonstrable hearing deficit", "setting": "[21]; cumulative doses below 150 g/m^2", "value": "less than 10 % of the patients"}, {"measurement": "effects on hearing / hearing loss, reversibility", "setting": "[21]; other clinical trials", "value": "hearing loss, which was reversible after the drug treatment was discontinued; also recorded: totally reversible upon drug discontinuation; also recorded: effects on hearing at high doses of 4 gr/M^2 /day that resolve when it is discontinued"}, {"measurement": "wound healing problems", "setting": "[22]", "value": "problems with wound healing have not been experienced"}]}]}
